Results taken from patent US20250059139A1, “COMPOUNDS FOR TREATMENT OF CANCER” (THE JOHNS HOPKINS UNIVERSITY, priority 2021, published 2025).
Several values for one entry are separate records, joined by “and”; a condition that tells them apart may be missing. Equal entries are not always repeated.

Columns and labels:
[1] = Water solubility; assay type: physicochemical
[2] = system: human prostate cancer cell lines; settings: optimal normoxic, nutrient and pH culture conditions; previous studies; read-out: IC50 in vitro growth of human prostate cancer cell lines; cited from earlier work
[3] = system: TRAMP-C2 mouse prostate cancer; assay: In vivo growth of TRAMP-C2 allografts in C57BL/6J wild type vs. NOX2-, iNOS-, S100A9-KO hosts; settings: daily oral 10 mg/kg/d over a 3-week period; wild type and KO hosts
Source text: (§1) Prostate Cancer Models. The source, history, and characteristics of the human prostate cancer cell lines and PDXs used, as well as cell culture conditions for their in vitro maintenance and the in vivo protocol for xenograft growth in triple immune-deficient NSG (i.e. NOD.Cg-PrkdcScidIl2rgtmlWji/Szj), adult (>8 week old) male mice obtained from the Sidney Kimmel Comprehensive Cancer Center (SKCCC) Animal Core Facility are described previously (Isaacs 2013; Brennen et al. JCI Insight. 2021, 6(8):e146827; Zhu et al. Oncogene 2020, 39(45): 6935-6949). […] In vitro growth curves were determined as described (Isaacs 2013). In vivo growth response to oral daily TasQ (10 mg/kg/d) of TRAMP-C2 mouse prostate cancers was evaluated in C57BL/6J syngeneic wild type vs. NOX-2 vs. iNOS null male mice obtained from Jackson Laboratory (Bar Harbor, ME). Growth response to oral daily TasQ (10 mg/kg/d) of TRAMP-C2 and B6CaP mouse prostate cancers was also evaluated in S100A9 null C57BL′6J male mice obtained from Dmitry Gabrilovich (Wistar Institute). […] In vitro growth curves were determined as described (Isaacs 2013). Growth response to daily oral TasQ vs. ESATA-20 (both at 10 mg/kg/d) of Myc-CaP-CR mouse prostate cancer was evaluated in syngeneic FVB/NJ castrate male mice from Jackson Laboratory. […]

[4] = system: LvCaP-3 human prostate cancer PDXs; assay: In vivo growth of LvCaP-3 xenografts in castrate hosts; settings: daily oral 10 mg/kg
Source text: as §1

[5] = molecular target: T1, fl-NCoR1 (Homo sapiens, UniProt O75376); assay: SPR binding of TasQ to immobilized fl-NCoR1; settings: compound in solution
T1 construct: (N-terminal FLAG-tagged; AA 1-2440); FLAG (N); purchased Abcam ab82239
T1 sequence (O75376 whole entry, the tested form may be a part): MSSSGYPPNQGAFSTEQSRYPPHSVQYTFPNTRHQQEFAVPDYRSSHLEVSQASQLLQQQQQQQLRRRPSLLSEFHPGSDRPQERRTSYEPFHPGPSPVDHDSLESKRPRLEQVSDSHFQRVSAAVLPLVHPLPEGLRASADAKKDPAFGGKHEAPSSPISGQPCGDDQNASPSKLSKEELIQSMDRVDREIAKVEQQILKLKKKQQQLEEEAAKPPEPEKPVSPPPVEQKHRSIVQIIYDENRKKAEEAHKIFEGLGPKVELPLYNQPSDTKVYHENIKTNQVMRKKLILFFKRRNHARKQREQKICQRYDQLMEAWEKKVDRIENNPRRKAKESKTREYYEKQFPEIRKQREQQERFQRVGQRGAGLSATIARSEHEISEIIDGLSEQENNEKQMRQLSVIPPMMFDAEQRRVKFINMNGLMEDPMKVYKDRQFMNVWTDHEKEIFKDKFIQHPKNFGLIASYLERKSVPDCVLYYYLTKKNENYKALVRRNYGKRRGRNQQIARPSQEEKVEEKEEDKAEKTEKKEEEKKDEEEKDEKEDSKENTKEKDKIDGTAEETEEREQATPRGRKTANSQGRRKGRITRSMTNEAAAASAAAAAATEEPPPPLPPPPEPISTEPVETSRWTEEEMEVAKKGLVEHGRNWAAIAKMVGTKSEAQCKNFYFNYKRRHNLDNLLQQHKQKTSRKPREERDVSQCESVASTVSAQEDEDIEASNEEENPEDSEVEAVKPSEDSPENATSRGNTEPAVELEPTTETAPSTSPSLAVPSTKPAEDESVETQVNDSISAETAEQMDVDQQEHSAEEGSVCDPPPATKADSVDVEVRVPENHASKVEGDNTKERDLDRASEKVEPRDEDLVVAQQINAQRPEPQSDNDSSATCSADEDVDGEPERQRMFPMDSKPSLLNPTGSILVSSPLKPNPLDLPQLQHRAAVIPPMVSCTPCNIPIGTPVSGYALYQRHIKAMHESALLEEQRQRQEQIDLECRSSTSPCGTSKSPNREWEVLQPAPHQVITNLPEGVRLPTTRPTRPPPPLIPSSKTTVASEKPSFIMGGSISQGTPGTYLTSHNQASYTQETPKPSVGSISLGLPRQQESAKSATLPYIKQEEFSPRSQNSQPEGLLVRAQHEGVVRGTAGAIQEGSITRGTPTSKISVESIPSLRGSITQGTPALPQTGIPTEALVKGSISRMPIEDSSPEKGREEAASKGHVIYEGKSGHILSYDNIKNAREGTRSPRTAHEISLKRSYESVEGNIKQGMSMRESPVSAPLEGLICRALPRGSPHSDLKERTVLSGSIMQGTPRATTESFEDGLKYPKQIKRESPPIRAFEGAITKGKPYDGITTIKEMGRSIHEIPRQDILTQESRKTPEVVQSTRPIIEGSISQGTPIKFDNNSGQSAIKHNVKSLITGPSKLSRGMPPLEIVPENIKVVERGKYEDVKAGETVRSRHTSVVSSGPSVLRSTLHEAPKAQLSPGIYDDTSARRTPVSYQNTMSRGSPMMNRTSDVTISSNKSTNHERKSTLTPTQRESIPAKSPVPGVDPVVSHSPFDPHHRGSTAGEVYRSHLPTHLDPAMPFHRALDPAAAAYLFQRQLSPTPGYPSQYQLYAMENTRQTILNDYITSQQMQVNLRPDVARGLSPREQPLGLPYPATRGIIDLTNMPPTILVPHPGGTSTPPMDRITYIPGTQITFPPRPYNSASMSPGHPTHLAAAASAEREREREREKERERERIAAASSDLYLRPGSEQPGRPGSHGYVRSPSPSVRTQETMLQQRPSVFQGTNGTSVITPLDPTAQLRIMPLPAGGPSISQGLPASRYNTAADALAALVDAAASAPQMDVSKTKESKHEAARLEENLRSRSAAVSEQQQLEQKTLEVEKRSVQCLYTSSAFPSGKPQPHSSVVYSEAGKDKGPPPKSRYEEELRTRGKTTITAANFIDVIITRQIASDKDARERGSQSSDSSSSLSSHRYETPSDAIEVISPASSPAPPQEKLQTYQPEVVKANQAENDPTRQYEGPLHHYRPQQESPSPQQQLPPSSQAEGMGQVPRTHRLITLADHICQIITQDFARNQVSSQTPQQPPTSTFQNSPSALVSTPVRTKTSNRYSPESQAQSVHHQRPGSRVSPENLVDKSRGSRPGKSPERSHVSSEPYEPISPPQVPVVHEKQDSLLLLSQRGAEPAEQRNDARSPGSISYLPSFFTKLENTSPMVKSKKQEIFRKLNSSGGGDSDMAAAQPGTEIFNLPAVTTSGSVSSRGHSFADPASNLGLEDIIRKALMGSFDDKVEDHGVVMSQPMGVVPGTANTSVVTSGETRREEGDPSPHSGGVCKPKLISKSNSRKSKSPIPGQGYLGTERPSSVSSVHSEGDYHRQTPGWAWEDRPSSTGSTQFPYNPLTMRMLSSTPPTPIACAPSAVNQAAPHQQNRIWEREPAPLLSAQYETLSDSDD
Experimental: Surface Plasmon Resonance (SPR) Binding Analysis. SPR analysis was performed on the Biacore 3000™ system using CM5 sensor chips, certified buffers (HBS-P—10 mM HEPES, 0.15 M NaCl, pH 7.4, containing 0.005% v/v Surfactant P; HBS-EP-HBS-P with 3 mM EDTA) and reagents for immobilization and surface regeneration from Biacore, GE Healthcare, Uppsala Sweden. Evaluation of sensorgrams was performed using the BIA-evaluation Software version 4.1 and GraphPad Prism 4. Buffer of protein reagents were changed to HBS-P on Zeba spin desalting columns (Thermo Scientific) prior to being used in SPR analysis (Isaacs 2013).
B. Binding of TasQ to immobilized HDAC4 and NCoR1. Different variants of HDAC4 (full-length wild-type and mutant forms and the truncated protein) and full-length NCoR1 were immobilized on a CM5 chip using random amine coupling. Briefly, proteins were dissolved in 10 mM sodium acetate buffer at pH 5.0 or 5.5 and immobilized to the aimed level using the standard protocol from GE Healthcare. Serially diluted TasQ in HBS-P buffer with 10 or 20 μM Zn was injected (for 2 or 3 min at a flow rate of 30 μl/min) either directly or after a 1st injection of 1 mM DTT to reduce cysteines in the zinc conformation site in HDAC4. Regeneration was made with a short pulse of HBS-EP.
Thus, TasQ's inhibition of HDAC4/NCoR1 formation involves only its binding to HDAC4. […]

[6] = system: AHR protein in LNCaP cells; assay: AHR translocation and downregulation in LNCaP cells (immunoblot); assay type: cell-based, human; settings: TasQ 10 μM
Experimental: Western Blot Analysis. Analysis and quantification of protein expression via immunoblot was performed as previously described (Brennen 2021). All assays were performed with total cell lysates from an equal number (i.e., 100,000) of cells loaded per lane for accurate comparisons across cell lines and conditions.

Structure (SMILES) | water solubility compared with TasQ [1] | IC50 [2] | inhibition of tumor growth [3] [%] | inhibition of growth of LvCaP-3 xenografts at the end of study [4] | binding to immobilized fl-NCoR1 protein [5] | time to downregulation of the AHR protein [6] [h]
COc1cccc2c1c(O)c(C(=O)N(c1ccc(C(F)(F)F)cc1)C1CCCCC1)c(=O)n2C [ESATA-20] | less water soluble than TasQ |  |  |  |  | 
COc1cccc2c1c(O)c(C(=O)N(C)c1ccc(C(F)(F)F)cc1)c(=O)n2C [TasQ, Tasquinimod] |  | > 50 µM and ~50 µM | > 70 | ⅔ | no detectable binding | 2 to 4
